Target: ROCK2 protein (Homo sapiens, UniProt O75116)
Assay: Degradation inducing activity of ROCK2 protein in HUVEC cells, Western blotting (Simple Western JESS)
Type: cell-based
Parameters: endogenous in cells; host or cells: HUVEC (ATCC CRL-1730)
Settings: HUVEC, 24 h; for inhibition at 1 µM: degradation rate at 1 µM; for inhibition at 10 µM: degradation rate at 10 µM
Experimental: In vitro degradation inducing activity of ROCK2 protein of compounds of Examples was evaluated by Western Blotting (WB).
By a test compound, 10 mM DMSO solution was prepared, which was used as a 10 µM test compound solution. Further, the solution was diluted 10-fold with DMSO to prepare a 1 mM solution, which was used as a 1 µM test compound solution.
HUVEC cells (ATCC: CRL-1730, Lot: 70041472) were cultured in F-12K medium supplemented with 10% FBS, 0.1 mg/mL heparin, […] Endothelial Cell Growth Supplement (ECGS, Corning), and 1% Penicillin/Streptomycin. The HUVEC cells seeded in a 24 well plate at 50,000 cells/well/1 mL were cultured for 24 hours, and then 1 µL of DMSO or a test compound solution was added thereto and treatment was performed for 24 hours. Cells were harvested and lysed for 20 minutes on ice using lysis buffer (Cell Signaling Technology, Cat#9803) supplemented with protease inhibitor cocktail (Sigma, Cat#P8340; Roche, Cat#P11873580001), and phosphatase inhibitor cocktail (Sigma, Cat#P5726, P0044). The lysate was sonicated (15 seconds, amplitude 30%, 1 cycle) and then centrifuged at 12500 rpm for 15 minutes at 4°C. The protein concentration was determined by BCA assay kit (Thermo Fisher Scientific, Cat#23225).
The western blotting was performed using Simple Western JESS (protein simple). A cell lysis sample (protein amount; about 1.06 µg) was loaded on a plate of Simple Western JESS, and the expression level of ROCK2 protein was detected using a 12-230 kDa Wes Separation Module (Protein simple, Cat#SM-WO04), an Anti-Rabbit Detection Module for Wes (Protein simple, Cat#DM-001), and a Total Protein Detection Module for Wes (Protein simple, Cat#DM-TP01). As the primary antibody, a material obtained by diluting ROCK2 (D1B1) Rabbit mAb (Cell Signaling Technology, Cat#9029) at 1:10 was used, and as the secondary antibody, a material obtained by diluting HRP-labeled anti-rabbit IgG antibody (Cell Signaling Technology, Cat#7074S) at 1:100 was used. The expression level of the target protein was standardized using the total protein amount loaded as a reference. The standardized expression level data of the control (DMSO) was taken as 100%, and the degradation rate (%) was calculated from the average standardized expression level data of the test compound. All analysis steps, such as data detection and analysis, are fully automated.
With respect to the ROCK2 protein degradation rate of the test compound, the protein degradation rates (%) at the evaluation concentrations were set to A ≥ 75%, 75% > B ≥ 50%, 50% > C ≥ 25%, and D < 25%, and are shown in Table 7.

Sequence of ROCK2 protein (O75116 whole entry): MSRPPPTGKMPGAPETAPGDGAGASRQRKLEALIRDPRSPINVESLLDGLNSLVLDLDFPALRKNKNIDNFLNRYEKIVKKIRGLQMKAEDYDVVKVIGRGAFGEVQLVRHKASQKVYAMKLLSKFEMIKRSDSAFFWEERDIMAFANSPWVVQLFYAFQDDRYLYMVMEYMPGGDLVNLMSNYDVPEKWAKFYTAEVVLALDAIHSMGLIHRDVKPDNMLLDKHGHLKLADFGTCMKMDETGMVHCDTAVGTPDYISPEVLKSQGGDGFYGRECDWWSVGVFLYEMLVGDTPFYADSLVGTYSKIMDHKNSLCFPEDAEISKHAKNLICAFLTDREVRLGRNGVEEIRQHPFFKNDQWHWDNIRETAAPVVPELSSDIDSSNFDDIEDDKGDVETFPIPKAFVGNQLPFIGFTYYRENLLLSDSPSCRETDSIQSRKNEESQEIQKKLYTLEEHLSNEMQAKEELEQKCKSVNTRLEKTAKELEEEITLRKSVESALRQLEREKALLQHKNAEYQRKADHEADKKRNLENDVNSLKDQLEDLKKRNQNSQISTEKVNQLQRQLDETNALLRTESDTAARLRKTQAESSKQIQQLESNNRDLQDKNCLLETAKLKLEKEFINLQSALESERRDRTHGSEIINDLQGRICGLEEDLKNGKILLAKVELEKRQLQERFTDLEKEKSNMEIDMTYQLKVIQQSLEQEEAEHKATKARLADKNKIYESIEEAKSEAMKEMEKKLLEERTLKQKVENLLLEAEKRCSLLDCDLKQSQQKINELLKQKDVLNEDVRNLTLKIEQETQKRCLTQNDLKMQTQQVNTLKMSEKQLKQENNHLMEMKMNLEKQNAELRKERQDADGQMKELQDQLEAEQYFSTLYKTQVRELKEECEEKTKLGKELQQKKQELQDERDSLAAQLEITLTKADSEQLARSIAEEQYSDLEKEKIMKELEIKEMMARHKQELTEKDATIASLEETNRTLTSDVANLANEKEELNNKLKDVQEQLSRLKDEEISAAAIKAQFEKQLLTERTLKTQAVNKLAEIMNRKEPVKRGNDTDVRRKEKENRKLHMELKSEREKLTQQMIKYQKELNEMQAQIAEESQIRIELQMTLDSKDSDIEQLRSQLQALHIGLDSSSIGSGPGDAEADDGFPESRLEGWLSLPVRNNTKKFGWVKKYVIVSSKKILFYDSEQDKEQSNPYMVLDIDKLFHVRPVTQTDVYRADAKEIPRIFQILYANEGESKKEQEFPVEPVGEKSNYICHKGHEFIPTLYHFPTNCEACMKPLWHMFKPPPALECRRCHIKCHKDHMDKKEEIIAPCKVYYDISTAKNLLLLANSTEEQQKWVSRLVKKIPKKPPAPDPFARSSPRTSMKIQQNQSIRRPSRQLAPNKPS

SMILES | inhibition at 1 µM | inhibition at 10 µM
COC[C@H]1CN[C@H](C)CN1CC(=O)N1CC(C)(C)c2ncc(Cc3ccccc3OCCOCCOCCOCCOCCOCCOCCOCCNC[C@@H](C(=O)Nc3ccc4cnccc4c3)c3ccccc3)cc21 [Example 84, (S)-N-(Isoquinolin-6-yl)-1-(2-((1-(2-((2R,5R)-2-(methoxymethyl)-5-methylpiperazin-1-yl)acetyl)-3,3-dimethyl-2,3-dihydro-1H-pyrrolo[3,2-b]pyridin-6-yl)methyl)phenoxy)-26-phenyl-3,6,9,12,15,18,21-heptaoxa-24-azaheptacosan-27-amide] | 50 to 75% | 25 to 50%
COC[C@H]1CN[C@H](C)CN1CC(=O)N1CC(C)(C)c2nc(CN(C)CCOCCN[C@H](C)c3ccc(C(=O)Nc4ccncc4)cc3)c(Cc3ccc(F)cc3)cc21 [Example 22, 4-((R)-1-((2-(2-(((6-(4-Fluorobenzyl)-1-(2-((2R,5R)-2-(methoxymethyl)-5-methylpiperazin-1-yl)acetyl)-3,3-dimethyl-2,3-dihydro-1H-pyrrolo[3,2-b]pyridin-5-yl)methyl)(methyl)amino)ethoxy)ethyl)amino)ethyl)-N-(pyridin-4-yl)benzamide] | < 25% | ≥ 75%
COC[C@H]1CN[C@H](C)CN1CC(=O)N1CC(C)(C)c2ncc(Cc3ccccc3OCCOCCOCCOCCOCCN[C@H](Cc3cccc(F)c3)C(=O)Nc3ccc(-c4ccncc4)cc3)cc21 [Example 74, (R)-2-(3-Fluorobenzyl)-17-(2-((1-(2-((2R,5R)-2-(methoxymethyl)-5-methylpiperazin-1-yl)acetyl)-3,3-dimethyl-2,3-dihydro-1H-pyrrolo[3,2-b]pyridin-6-yl)methyl)phenoxy)-N-(4-(pyridin-4-yl)phenyl)-6,9,12,15-tetraoxa-3-azaheptadecanamide] | < 25% | 50 to 75%
COC[C@H]1CN[C@H](C)CN1CC(=O)N1CC(C)(C)c2ncc(Cc3ccccc3OCCOCCOCCNC[C@@H](C(=O)Nc3ccc4cnccc4c3)c3ccccc3)cc21 [Example 79, (S)-N-(Isoquinolin-6-yl)-3-((2-(2-(2-(2-((1-(2-((2R,5R)-2-(methoxymethyl)-5-methylpiperazin-1-yl)acetyl)-3,3-dimethyl-2,3-dihydro-1H-pyrrolo[3,2-b]pyridin-6-yl)methyl)phenoxy)ethoxy)ethoxy)ethyl)amino)-2-phenylpropanamide] | ≥ 75% | ≥ 75%
COC[C@H]1CN[C@H](C)CN1CC(=O)N1CC(C)(C)c2nc(CN(C)CCOCCOCCOCCOCCN[C@H](Cc3cccc(F)c3)C(=O)Nc3ccc(-c4ccncc4)cc3)c(Cc3ccc(F)cc3)cc21 [Example 32, (R)-18-(3-Fluorobenzyl)-1-(6-(4-fluorobenzyl)-1-(2-((2R,5R)-2-(methoxymethyl)-5-methylpiperazin-1-yl)acetyl)-3,3-dimethyl-2,3-dihydro-1H-pyrrolo[3,2-b]pyridin-5-yl)-2-methyl-N-(4-(pyridin-4-yl)phenyl)-5,8,11,14-tetraoxa-2,17-diazanonadecan-19-amide] | < 25% | ≥ 75%
COC[C@H]1CN[C@H](C)CN1CC(=O)N1CC(C)(C)c2nc(CN(C)CCOCCOCCOCCOCCOCCOCCOCCN[C@H](C)c3ccc(C(=O)Nc4ccncc4)cc3)c(Cc3ccc(F)cc3)cc21 [Example 28, 4-((R)-1-(6-(4-Fluorobenzyl)-1-(2-((2R,5R)-2-(methoxymethyl)-5-methylpiperazin-1-yl)acetyl)-3,3-dimethyl-2,3-dihydro-1H-pyrrolo[3,2-b]pyridin-5-yl)-2-methyl-5,8,11,14,17,20,23-heptaoxa-2,26-diazaoctacosan-27-yl)-N-(pyridin-4-yl)benzamide] | 50 to 75% | < 25%
C[C@@H]1CN(CC(=O)N2CC(C)(C)c3ncc(Cc4ccc(F)cc4)cc32)[C@@H](CN(C)CCOCCN[C@H](C)c2ccc(C(=O)Nc3ccncc3)cc2)CN1 [Example 1, 4-((R)-1-((2-(2-((((2R,5R)-1-(2-(6-(4-Fluorobenzyl)-3,3-dimethyl-2,3-dihydro-1H-pyrrolo[3,2-b]pyridin-1-yl)-2-oxoethyl)-5-methylpiperazin-2-yl)methyl)(methyl)amino)ethoxy)ethyl)amino)ethyl)-N-(pyridin-4-yl)benzamide] | 25 to 50% | ≥ 75%
C[C@@H]1CN(CC(=O)N2CC(C)(C)c3ncc(Cc4ccc(F)cc4)cc32)[C@@H](CN(C)CCOCCOCCOCCNC[C@@H](C(=O)Nc2ccc3cnccc3c2)c2ccccc2)CN1 [Example 17, (S)-1-((2R,5R)-1-(2-(6-(4-Fluorobenzyl)-3,3-dimethyl-2,3-dihydro-1H-pyrrolo[3,2-b]pyridin-1-yl)-2-oxoethyl)-5-methylpiperazin-2-yl)-N-(isoquinolin-6-yl)-2-methyl-16-phenyl-5,8,11-trioxa-2,14-diazaheptadecan-17-amide] | 25 to 50% | ≥ 75%
COC[C@H]1CN[C@H](C)CN1CC(=O)N1CC(C)(C)c2ncc(Cc3cccc(OCCOCCOCCOCCOCCOCCOCCNC[C@@H](C(=O)Nc4ccc5cnccc5c4)c4ccccc4)c3)cc21 [Example 62, (S)-N-(Isoquinolin-6-yl)-1-(3-((1-(2-((2R,5R)-2-(methoxymethyl)-5-methylpiperazin-1-yl)acetyl)-3,3-dimethyl-2,3-dihydro-1H-pyrrolo[3,2-b]pyridin-6-yl)methyl)phenoxy)-23-phenyl-3,6,9,12,15,18-hexaoxa-21-azatetracosan-24-amide] | 25 to 50% | ≥ 75%
C[C@@H]1CN(CC(=O)N2CC(C)(C)c3ncc(Cc4ccc(F)cc4)cc32)[C@@H](CN(C)CCOCCOCCOCCOCCOCCN[C@H](Cc2cccc(F)c2)C(=O)Nc2ccc(-c3ccncc3)cc2)CN1 [Example 12, (R)-21-(3-Fluorobenzyl)-1-((2R,5R)-1-(2-(6-(4-fluorobenzyl)-3,3-dimethyl-2,3-dihydro-1H-pyrrolo[3,2-b]pyridin-1-yl)-2-oxoethyl)-5-methylpiperazin-2-yl)-2-methyl-N-(4-(pyridin-4-yl)phenyl)-5,8,11,14,17-pentaoxa-2,20-diazadocosan-22-amide] | < 25% | 25 to 50%
COC[C@H]1CN[C@H](C)CN1CC(=O)N1CC(C)(C)c2nc(CN(C)CCOCCOCCOCCOCCOCCNC[C@@H](C(=O)Nc3ccc4cnccc4c3)c3ccccc3)c(Cc3ccc(F)cc3)cc21 [Example 40, (S)-1-(6-(4-Fluorobenzyl)-1-(2-((2R,5R)-2-(methoxymethyl)-5-methylpiperazin-1-yl)acetyl)-3,3-dimethyl-2,3-dihydro-1H-pyrrolo[3,2-b]pyridin-5-yl)-N-(isoquinolin-6-yl)-2-methyl-22-phenyl-5,8,11,14,17-pentaoxa-2,20-diazatricosan-23-amide] | 25 to 50% | 50 to 75%
COC[C@H]1CN[C@H](C)CN1CC(=O)N1CC(C)(C)c2ncc(Cc3ccccc3OCCOCCOCCOCCOCCOCCOCCOCCN[C@H](Cc3cccc(F)c3)C(=O)Nc3ccc(-c4ccncc4)cc3)cc21 [Example 77, (R)-2-(3-Fluorobenzyl)-26-(2-((1-(2-((2R,5R)-2-(methoxymethyl)-5-methylpiperazin-1-yl)acetyl)-3,3-dimethyl-2,3-dihydro-1H-pyrrolo[3,2-b]pyridin-6-yl)methyl)phenoxy)-N-(4-(pyridin-4-yl)phenyl)-6,9,12,15,18,21,24-heptaoxa-3-azahexacosanamide] | < 25% | ≥ 75%
COC[C@H]1CN[C@H](C)CN1CC(=O)N1CC(C)(C)c2nc(CN(C)CCOCCOCCN[C@H](Cc3cccc(F)c3)C(=O)Nc3ccc(-c4ccncc4)cc3)c(Cc3ccc(F)cc3)cc21 [Example 30, (R)-12-(3-Fluorobenzyl)-1-(6-(4-fluorobenzyl)-1-(2-((2R,5R)-2-(methoxymethyl)-5-methylpiperazin-1-yl)acetyl)-3,3-dimethyl-2,3-dihydro-1H-pyrrolo[3,2-b]pyridin-5-yl)-2-methyl-N-(4-(pyridin-4-yl)phenyl)-5,8-dioxa-2,11-diazatridecan-13-amide] | < 25% | < 25%

Reference: patent EP4578856A1, “HETEROCYCLIC COMPOUND” (Ubience Inc., priority 2022, dated 2024)
